{
  "source": "patent US9738655B2",
  "about": "“Tetrahydroisoquinolines containing substituted azoles as factor XIa inhibitors” (BRISTOL-MYERS SQUIBB COMPANY, priority 2013, dated 2017)",
  "note": "Where a name gives a salt, the structure may show the parent alone.",
  "data": [
    {"molecular_target": "purified human Factor XIa (Homo sapiens (Human), UniProt P03951)", "sequence (P03951 388-625)": "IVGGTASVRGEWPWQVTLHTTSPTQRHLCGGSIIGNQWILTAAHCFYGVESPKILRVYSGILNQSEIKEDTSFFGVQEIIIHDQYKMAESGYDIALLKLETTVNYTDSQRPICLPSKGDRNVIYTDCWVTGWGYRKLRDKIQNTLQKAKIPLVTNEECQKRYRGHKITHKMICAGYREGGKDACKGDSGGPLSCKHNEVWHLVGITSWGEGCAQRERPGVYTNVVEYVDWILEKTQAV", "sequence (P03951 19-387 partner)": "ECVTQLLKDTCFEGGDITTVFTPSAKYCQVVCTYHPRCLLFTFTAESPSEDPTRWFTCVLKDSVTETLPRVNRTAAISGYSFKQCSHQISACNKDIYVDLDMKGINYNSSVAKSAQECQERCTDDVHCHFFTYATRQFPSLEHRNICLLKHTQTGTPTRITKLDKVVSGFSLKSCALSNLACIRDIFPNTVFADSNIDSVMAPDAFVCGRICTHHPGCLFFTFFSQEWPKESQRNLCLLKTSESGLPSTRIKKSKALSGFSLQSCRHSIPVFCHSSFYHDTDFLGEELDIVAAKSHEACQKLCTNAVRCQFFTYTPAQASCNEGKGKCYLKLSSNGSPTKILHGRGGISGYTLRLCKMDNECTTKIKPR", "experiment": "Factor XIa enzyme inhibition assay (chromogenic substrate S-2366)", "settings": "not given", "units": {"Ki": "nM"}, "values": [
      {"smiles": "COc1ncc(-c2cccc3c2CCN(C(=O)c2cn(-c4cccc(Cl)c4F)nn2)C3C(=O)Nc2ccc(C(=O)O)cc2)c(OC)n1", "note": "(stereo not drawn) [Example 158, 4-(2-(1-(3-chloro-2-fluorophenyl)-1H-1,2,3-triazole-4-carbonyl)-5-(2,4-dimethoxypyrimidin-5-yl)-1,2,3,4-tetrahydroisoquinoline-1-carboxamido)benzoic acid]", "Ki": "< 5"}
    ]},
    {"molecular_target": "purified human Factor XIa (Homo sapiens (Human), UniProt P03951)", "experiment": "Factor XIa enzyme inhibition assay (chromogenic substrate S-2366)", "settings": "read-out: Factor XIa Ki; measured at 25° C.", "units": {"Ki": "nM"}, "values": [
      {"smiles": "O=C(O)c1ccc(NC(=O)[C@H]2c3cccc(N4CCC(O)CC4)c3CCN2C(=O)c2cn(-c3cccc(Cl)c3F)nn2)cc1", "note": "[Example 87, (R)-4-(2-(1-(3-chloro-2-fluorophenyl)-1H-1,2,3-triazole-4-carbonyl)-5-(4-hydroxypiperidin-1-yl)-1,2,3,4-tetrahydroisoquinoline-1-carboxamido)benzoic acid, TFA salt]", "Ki": 43},
      {"smiles": "O=C(O)c1ccc(NC(=O)C2c3cccc(NCCO)c3CCN2C(=O)c2cn(-c3cccc(Cl)c3F)nn2)cc1", "note": "(stereo not drawn) [Example 111, 4-(2-(1-(3-Chloro-2-fluorophenyl)-1H-1,2,3-triazole-4-carbonyl)-5-((2-hydroxyethyl)amino)-1,2,3,4-tetrahydroisoquinoline-1-carboxamido)benzoic acid, TFA salt]", "Ki": 6.04},
      {"smiles": "CN(C)c1ncc(-c2cccc3c2CCN(C(=O)c2cn(-c4cccc(Cl)c4F)nn2)C3C(=O)Nc2ccc(C(=O)O)cc2)cn1", "note": "(stereo not drawn) [Example 183, 4-(2-(1-(3-chloro-2-fluorophenyl)-1H-1,2,3-triazole-4-carbonyl)-5-(2-(dimethylamino)pyrimidin-5-yl)-1,2,3,4-tetrahydroisoquinoline-1-carboxamido)benzoic acid]", "Ki": "< 5"},
      {"smiles": "COC1CCN(c2cccc3c2CCN(C(=O)c2cc(-c4ccccc4Cl)no2)C3C(=O)Nc2ccc(C(=O)O)cc2)CC1", "note": "(stereo not drawn) [Example 148, 4-(2-(3-(2-chlorophenyl)isoxazole-5-carbonyl)-5-(4-methoxypiperidin-1-yl)-1,2,3,4-tetrahydroisoquinoline-1-carboxamido)benzoic acid, TFA salt]", "Ki": 69.5},
      {"smiles": "O=C(O)c1ccc(NC(=O)C2c3cccc(C4=CCOCC4)c3CCN2C(=O)c2cn(-c3cccc(Cl)c3F)nn2)cc1", "note": "(stereo not drawn) [Example 165, 4-(2-(1-(3-chloro-2-fluorophenyl)-1H-1,2,3-triazole-4-carbonyl)-5-(3,6-dihydro-2H-pyran-4-yl)-1,2,3,4-tetrahydroisoquinoline-1-carboxamido)benzoic acid]", "Ki": "< 5"},
      {"smiles": "O=C(O)c1ccc(NC(=O)[C@@H]2c3cccc(N4CCC(O)CC4)c3CCN2C(=O)c2cn(-c3cccc(Cl)c3F)nn2)cc1", "note": "[Example 86, (S)-4-(2-(1-(3-chloro-2-fluorophenyl)-1H-1,2,3-triazole-4-carbonyl)-5-(4-hydroxypiperidin-1-yl)-1,2,3,4-tetrahydroisoquinoline-1-carboxamido)benzoic acid, TFA salt]", "Ki": "< 5"},
      {"smiles": "NC(=O)Cc1cccc(-c2cccc3c2CCN(C(=O)c2cn(-c4cccc(Cl)c4F)nn2)C3C(=O)Nc2ccc(C(=O)O)cc2)c1", "note": "(stereo not drawn) [Example 188, 4-(5-(3-(2-amino-2-oxoethyl)phenyl)-2-(1-(3-chloro-2-fluorophenyl)-1H-1,2,3-triazole-4-carbonyl)-1,2,3,4-tetrahydroisoquinoline-1-carboxamido)benzoic acid]", "Ki": "< 5"},
      {"smiles": "NCc1ccc(-c2cccc3c2CCN(C(=O)c2cn(-c4cccc(Cl)c4F)nn2)C3C(=O)Nc2ccc(C(=O)O)cc2)cc1", "note": "(stereo not drawn) [Example 163, 4-(5-(4-(aminomethyl)phenyl)-2-(1-(3-chloro-2-fluorophenyl)-1H-1,2,3-triazole-4-carbonyl)-1,2,3,4-tetrahydroisoquinoline-1-carboxamido)benzoic acid, TFA salt]", "Ki": "< 5"},
      {"smiles": "O=C(O)c1ccc(NC(=O)[C@@H]2c3cccc(N4CCOCC4=O)c3CCN2C(=O)[C@H]2CC(c3cccc(Cl)c3F)=NO2)cc1", "note": "[Example 289, 4-((S)-2-((R)-3-(3-chloro-2-fluorophenyl)-4,5-dihydroisoxazole-5-carbonyl)-5-(3-oxomorpholino)-1,2,3,4-tetrahydroisoquinoline-1-carboxamido)benzoic acid,]", "Ki": "< 5"},
      {"smiles": "O=C(O)c1ccc(NC(=O)C2c3cccc(-c4cnc5[nH]ccc5c4)c3CCN2C(=O)c2cn(-c3cccc(Cl)c3F)nn2)cc1", "note": "(stereo not drawn) [Example 181, 4-(2-(1-(3-chloro-2-fluorophenyl)-1H-1,2,3-triazole-4-carbonyl)-5-(1H-pyrrolo[2,3-b]pyridin-5-yl)-1,2,3,4-tetrahydroisoquinoline-1-carboxamido)benzoic acid, TFA salt]", "Ki": "< 5"},
      {"smiles": "COC1CCN(c2cccc3c2CCN(C(=O)c2sc(-c4cccnc4)nc2C)C3C(=O)Nc2ccc(C(=O)O)cc2)CC1", "note": "(stereo not drawn) [Example 146, 4-(5-(4-methoxypiperidin-1-yl)-2-(4-methyl-2-(pyridin-3-yl)thiazole-5-carbonyl)-1,2,3,4-tetrahydroisoquinoline-1-carboxamido)benzoic acid, 2 TFA salt]", "Ki": 1200},
      {"smiles": "O=C(O)c1ccc(NC(=O)[C@H]2c3ccccc3CCN2C(=O)c2cn(-c3cccc(Cl)c3F)nn2)cc1", "note": "[Example 2, (R)-4-(2-(1-(3-Chloro-2-fluorophenyl)-1H-1,2,3-triazole-4-carbonyl)-1,2,3,4-tetrahydroisoquinoline-1-carboxamido)benzoic acid]", "Ki": 5580},
      {"smiles": "Nc1cc(-c2cccc3c2CCN(C(=O)c2cn(-c4cccc(Cl)c4F)nn2)C3C(=O)Nc2ccc(C(=O)O)cc2)ccn1", "note": "(stereo not drawn) [Example 38, 4-(5-(2-aminopyridin-4-yl)-2-(1-(3-chloro-2-fluorophenyl)-1H-1,2,3-triazole-4-carbonyl)-1,2,3,4-tetrahydroisoquinoline-1-carboxamido)benzoic acid, bis-TFA salt]", "Ki": "< 5"},
      {"smiles": "CN1CCC(=O)N(c2cccc3c2CCN(C(=O)c2cnn(-c4cccc(Cl)c4F)c2)C3C(=O)Nc2ccc(C(=O)O)cc2)CC1", "note": "(stereo not drawn) [Example 70, 4-(2-(1-(3-chloro-2-fluorophenyl)-1H-pyrazole-4-carbonyl)-5-(4-methyl-7-oxo-1,4-diazepan-1-yl)-1,2,3,4-tetrahydroisoquinoline-1-carboxamido)benzoic acid, TFA salt]", "Ki": 29.3},
      {"smiles": "Nc1c(C(=O)N2CCc3c(-c4cncnc4)cccc3C2C(=O)Nc2ccc(C(=O)O)cc2)cnn1-c1cccc(Cl)c1F", "note": "(stereo not drawn) [Example 46, 4-(2-(5-Amino-1-(3-chloro-2-fluorophenyl)-1H-pyrazole-4-carbonyl)-5-(pyrimidin-5-yl)-1,2,3,4-tetrahydroisoquinoline-1-carboxamido)benzoic acid, TFA salt]", "Ki": "< 5"},
      {"smiles": "Cn1ncc2c(-c3cccc4c3CCN(C(=O)c3cn(-c5cccc(Cl)c5F)nn3)C4C(=O)Nc3ccc(C(=O)O)cc3)cccc21", "note": "(stereo not drawn) [Example 169, 4-(2-(1-(3-chloro-2-fluorophenyl)-1H-1,2,3-triazole-4-carbonyl)-5-(1-methyl-1H-indazol-4-yl)-1,2,3,4-tetrahydroisoquinoline-1-carboxamido)benzoic acid]", "Ki": "< 5"}
    ]},
    {"molecular_target": "purified human Factor XIa (Homo sapiens (Human), UniProt P03951)", "experiment": "Factor XIa enzyme inhibition assay (chromogenic substrate S-2366)", "settings": "read-out: Factor XIa Ki; measured at 25° C.; TFA salt", "units": {"Ki": "nM"}, "values": [
      {"smiles": "COC1CCN(c2cccc3c2CCN(C(=O)C2CCN(c4cccc(Cl)c4)C2)C3C(=O)Nc2ccc(C(=O)O)cc2)CC1", "note": "(stereo not drawn) [Example 261, 4-(2-(1-(3-chlorophenyl)pyrrolidine-3-carbonyl)-5-(4-methoxypiperidin-1-yl)-1,2,3,4-tetrahydroisoquinoline-1-carboxamido)benzoic acid, TFA salt]", "Ki": 948}
    ]}
  ]
}
